Data as given in patent publication US20220178927A1, “BIOMARKERS FOR SELINEXOR” (Karyopharm Therapeutics Inc., priority 2019, published 2022).

Key:
[1] = system: bortezomib-refractory disease; conditions: cited from earlier work
[2] = system: MM refractory to either 4 or 5 drugs (quad- and penta-refractory); assay: phase 2 STORM study Part 1; type: in vivo, human; conditions: Selinexor 80 mg in combination with dexamethasone 20 mg, 2 dosing schedules; quad- and penta-refractory MM patients
Method: Selinexor 80 mg in combination with dexamethasone 20 mg administered using 2 dosing schedules was studied in patients with MM refractory to either 4 or 5 drugs (quad- and penta-refractory) in Part 1 of the phase 2 STORM (Selinexor Treatment Of Refractory Myeloma) study. Median overall response rate (ORR) was 21% in this heterogeneous population. Based on these findings, the activity of selinexor 80 mg administered twice-weekly was examined in a more uniform population in the pivotal STORM Part 2 study.

[3] = system: penta-exposed, triple-class refractory MM; assay: pivotal STORM Part 2 study; type: in vivo
Description: Eligible patients had measurable MM by International Myeloma Working Group (IMWG) criteria (See, Durie B G, Harousseau J L, Miguel J S, et al. International uniform response criteria for multiple myeloma. Leukemia 2006;20:1467-73. Rajkumar S V, Harousseau J L, Durie B, et al. Consensus recommendations for the uniform reporting of clinical trials: report of the International Myeloma Workshop Consensus Panel. Blood 2011;117:4691-5); prior treatment with bortezomib, carfilzomib, lenalidomide, pomalidomide, daratumumab, glucocorticoids, and an alkylating agent; and had disease refractory to at least 1 IMiD (lenalidomide and pomalidomide), 1 PI (bortezomib or carfilzomib), daratumumab, glucocorticoids and to their last regimen. Refractory disease was defined as progression during or within 60 days after completion of therapy, or <25% response to therapy.19, 20 Eastern Cooperative Oncology Group performance status of 0-2, adequate hepatic function, renal function, and hematopoietic function were required. Systemic light chain amyloidosis, active central nervous system involvement, grade≥3 peripheral or grade≥2 painful neuropathy were exclusion criteria.
Oral selinexor 80 mg in combination with dexamethasone 20 mg was administered on days 1 and 3, weekly, in 4-week cycles until disease progression, death or discontinuation. A dose modification protocol was used for adverse event (AE) management. All patients were required to receive ondansetron 8 mg (or equivalent) prior to the first dose of study drug and 2-3 times daily as needed. Other antiemetics (olanzapine, NK-1R antagonists) were permitted for patients intolerant to or with persistent nausea. Supportive measures were provided at the discretion of the investigator and may have included intravenous fluids, hematopoietic growth factors, transfusions, and/or appetite stimulants (olanzapine, megesterol acetate).
The primary endpoint was Overall Response Rate (ORR) adjudicated by the appointed Independent Review Committee (IRC). Secondary endpoints included duration of response (DOR), clinical benefit rate (CBR), progression-free survival (PFS) and OS (Overall Survival). Disease-specific assessments were conducted at baseline, day 1 of each treatment cycle, and at the time of disease progression or suspected response. High-risk cytogenetics included del(17p), t(4;14), t(14;16), and gain(1q) chromosomal abnormalities by fluorescent in situ hybridization (FISH). Quality of life was assessed using the Functional Assessment of Cancer Therapy-Multiple Myeloma (FACT-MM) patient-reported outcome questionnaire. Safety and tolerability were assessed through history, physical exam, laboratory assessments and 12-lead electrocardiogram. Adverse events (AEs) were graded according to the NCI CTCAE v4.03.
The sample size was based on assumptions for penta-exposed, triple-class-refractory MM using a minimal threshold for ORR of 10%. For the primary efficacy analysis, a sample size of 122 patients allowed for a one-sided test at α=0.025 to detect an ORR of ≥20% against the threshold ORR of 10% with 90% power. The modified intention-to-treat (mITT) population was used for the primary efficacy analysis, comprised of all enrolled patients who met all eligibility criteria or received a waiver from the Sponsor to enroll in the trial and received at least 1 dose of selinexor plus dexamethasone. The safety population included all patients who received at least 1 dose of study drug. The primary analysis used a 2-sided, exact 95% confidence interval, calculated for the ORR among the mITT population, with statistical significance declared if the lower bound of this interval was >10%. […] Summary statistics for continuous variables minimally included: n (number), mean, standard deviation (SD), minimum, median, and maximum. For categorical variables, frequencies and percentages are presented. For time-to-event variables, the Kaplan-Meier method was used for descriptive summaries.

quad-refractory myeloma = conditions: pivotal phase 2 study; cited from earlier work
refractory MM = conditions: expansion cohort (n=15) of the phase 1 monotherapy study; cited from earlier work
[4] = selinexor 80 mg + dexamethasone 20 mg twice weekly
[5] = selinexor 80 mg + dexamethasone 20 mg twice weekly, % of mITT patients
[6] = selinexor 80 mg + dexamethasone 20 mg twice weekly, % of patients

For `CC(C)C[C@H](NC(=O)[C@H](CCc1ccccc1)NC(=O)CN1CCOCC1)C(=O)N[C@@H](Cc1ccccc1)C(=O)N[C@@H](CC(C)C)C(=O)[C@@]1(C)CO1` [carfilzomib], the ORR [1] is given as 18.9%.
For `O=C(/C=C\n1cnc(-c2cc(C(F)(F)F)cc(C(F)(F)F)c2)n1)NNc1cnccn1` [selinexor, Selinexor], the “Overall response rate (ORR)” value [2] was 21%, the “discontinuation because of AEs (unrelated and related)” value ([3]; most common reasons for discontinuation) was 32.5% and the “Overall response rate (ORR)” value ([3]; oral selinexor 80 mg + dexamethasone 20 mg, days 1 and 3 weekly, mITT population (122 patients), IRC adjudicated) was 26.2%. For the same molecule, the “CBR (≥minimal response), clinical benefit rate” value [3, 4] was 39.3%, the “OS (Overall Survival)” value [3, 4] was 8.6 months and the “PFS (progression-free survival)” value [3, 4] was 3.7 months. The “median DOR (duration of response)” value [3, 4] was 4.4 months, the partial responses [3, 5] was 19.7% and the stringent complete responses [3, 5] was 1.6%. The “very good partial responses” value [3, 5] was 4.9%, the Minimal response [3, 6] was 13.1% and the “progressive disease or disease not evaluable” value [3, 6] was 21.3%. The stable disease [3, 6] was 39.3%, the “response of patients with relapse after CAR-T” value ([3]; selinexor 80 mg + dexamethasone 20 mg twice weekly, both (2) patients with prior CAR-T therapy) was “partial response” and the “Median time to partial response or better” value ([3]; selinexor 80 mg + dexamethasone 20 mg twice weekly, range 1-14 weeks) was 4.1 weeks. The “median OS in patients who achieved a partial or minimal response or better” value ([3]; selinexor 80 mg + dexamethasone 20 mg twice weekly, responder subgroup) was 15.6 months and the efficacy across subgroups ([3]; subgroups including patients with high-risk cytogenetics (53% of the patients)) was “consistent across subgroups”.
In the case of daratumumab, the ORR (quad-refractory myeloma) is given as 21.2% and the ORR (refractory MM) is given as 36%.
